Assay: Solubility of biocide in solvent system (A1+A2)
Assay type: physicochemical
Experimental: General method of preparing emulsifiable composition (C): Component (A1) and component (A2) were mixed and heated to a temperature in the range of 20° C. to 100° C. to obtain a solution. Respective amount of the biocide was charged to the above solution at a temperature in the range of 20° C. to 100° C. to obtain the solution containing biocide. Emulsifier and other optional ingredients were charged o to the above biocide containing solution to obtain the emulsifiable composition (C).

For CO/C=C(/C(=O)OC)c1ccccc1Oc1cc(Oc2ccccc2C#N)ncn1 [Azoxystrobin], which “Solubility wt. % in total (C)” value (solvent system Acetophenone (A1) / 2-Methoxy-4-Methylphenol (A2), molar ratio A1:A2 1:1) is on record?
The value was 27 wt. %.

And the “Solubility wt. % in total (C)” value (solvent system Acetophenone (A1) / 2-sec-Butylphenol (A2), molar ratio A1:A2 1:1)?
Its value is 32 wt. %.

What about the “Solubility wt. % in total (C)” value (solvent system Acetophenone (A1) / Phenyl acetic acid (A2), molar ratio A1:A2 2:1) of the same compound?
Its value is 25 wt. %.

And the “Solubility wt. % in total (C)” value (solvent system Acetophenone (A1) / Thymol (A2), molar ratio A1:A2 1:1)?
Its value is 28 wt. %.

Source: patent US20250008950A1, “BIOCIDE COMPOSITIONS” (BASF SE, priority 2021, published 2025)
